Reference: ChEMBL document CHEMBL2401650, “Selective inhibition of human acetylcholinesterase by xanthine derivatives: in vitro inhibition and molecular modeling investigations” (Bioorg Med Chem Lett, 2013)

Experiments:
Acetylcholinesterase = Acetylcholinesterase (Homo sapiens, UniProt P22303); experiment: Inhibition of human AChE using acetylthiocholine iodide as substrate treated 5 mins before substrate addition measured up to 4 mins by Ellman's method
Cholinesterase = Cholinesterase (Homo sapiens, UniProt P06276)
Chain of Cholinesterase (P06276 whole entry): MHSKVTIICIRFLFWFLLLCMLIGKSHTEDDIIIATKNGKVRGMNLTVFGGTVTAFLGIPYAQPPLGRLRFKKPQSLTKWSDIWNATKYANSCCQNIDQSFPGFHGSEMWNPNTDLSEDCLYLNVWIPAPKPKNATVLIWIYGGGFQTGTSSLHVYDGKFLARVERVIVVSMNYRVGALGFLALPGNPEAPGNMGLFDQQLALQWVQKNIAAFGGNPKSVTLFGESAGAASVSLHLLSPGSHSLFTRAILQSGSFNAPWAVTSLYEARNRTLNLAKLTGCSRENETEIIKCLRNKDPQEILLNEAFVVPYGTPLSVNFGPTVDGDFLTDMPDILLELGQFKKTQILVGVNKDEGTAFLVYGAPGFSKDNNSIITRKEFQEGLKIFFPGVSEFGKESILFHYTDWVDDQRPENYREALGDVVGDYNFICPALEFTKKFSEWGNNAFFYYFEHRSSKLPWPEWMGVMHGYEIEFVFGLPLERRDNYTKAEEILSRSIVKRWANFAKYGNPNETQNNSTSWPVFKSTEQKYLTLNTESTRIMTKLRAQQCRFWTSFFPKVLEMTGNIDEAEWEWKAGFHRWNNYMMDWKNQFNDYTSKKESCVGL
Description: Inhibition of human BuChE using S-butyrylthiocholine iodide as substrate treated 5 mins before substrate addition measured up to 4 mins by Ellman's method

Chain of Acetylcholinesterase (P22303 whole entry): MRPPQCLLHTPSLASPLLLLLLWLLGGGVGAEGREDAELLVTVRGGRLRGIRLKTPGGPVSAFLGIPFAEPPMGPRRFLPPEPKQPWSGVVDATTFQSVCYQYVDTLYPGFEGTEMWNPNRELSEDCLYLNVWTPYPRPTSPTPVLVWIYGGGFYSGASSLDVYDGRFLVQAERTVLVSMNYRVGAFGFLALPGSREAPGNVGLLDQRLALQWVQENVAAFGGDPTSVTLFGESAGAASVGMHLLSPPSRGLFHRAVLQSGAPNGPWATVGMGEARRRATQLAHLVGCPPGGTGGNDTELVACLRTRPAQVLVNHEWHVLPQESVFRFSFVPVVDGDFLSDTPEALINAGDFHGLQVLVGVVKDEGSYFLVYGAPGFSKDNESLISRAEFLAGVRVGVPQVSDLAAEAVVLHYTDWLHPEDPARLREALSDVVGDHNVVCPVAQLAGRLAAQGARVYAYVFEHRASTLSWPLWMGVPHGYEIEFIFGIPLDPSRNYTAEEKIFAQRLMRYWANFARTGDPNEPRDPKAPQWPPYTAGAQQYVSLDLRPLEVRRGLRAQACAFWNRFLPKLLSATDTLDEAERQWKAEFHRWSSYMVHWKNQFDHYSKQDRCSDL

Row | Structure (SMILES) | IC50 (Acetylcholinesterase) [µM] | IC50 (Cholinesterase) [µM]
1 | CCCn1cnc2c1c(=O)n(CCCCC(C)=O)c(=O)n2C [PROPENTOFYLLINE] | 6.4 | > 50
2 | CC(=O)CCCCn1c(=O)c2c(ncn2C)n(C)c1=O [PENTOXIFYLLINE] | 6.6 | > 50
3 | O=c1[nH]c(=O)c2[nH]cnc2[nH]1 [XANTHINE] | 9 | > 50
